From PubChem BioAssay AID1919009 (Molecular Pharmacology Branch, DTP, NCI, 2023)

Tested on: K24384-001-R-PDC complex spheroid growth
Test: Anticancer human tumor K24384-001-R-PDC patient-derived pancreatic adenocarcinoma cell line growth inhibition [AhR]
Conditions: for IC50: curve of first compound; for viability, T/C: stronger effect = lower value
In short: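 Spheroids combined tumor cells with HUVEC endothelial cells and human MSCs as stroma. AhR antagonists were paired with standard or investigational drugs, each dosed in half-log steps down from near clinical Cmax, or from 10 microM where Cmax was unknown.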
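Wherever viability, T/C is given: percent of DMSO vehicle-treated spheroid viability set as 100%.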

CC(C)c1c(-c2ccccc2)nc2c(C#N)c[nH]n2c1=O + Cc1cncc(-c2nc(NCCc3c[nH]c4ccccc34)c3ncn(C(C)C)c3n2)c1
IC50 (second compound 0.1 µM): > 10 µM
IC50 (second compound 0.316 µM): > 10 µM
IC50 (second compound 1 µM): > 10 µM
IC50 (second compound 3.16 µM): > 10 µM
IC50 (second compound 10 µM): < 0.0316 µM
viability, T/C (second compound 0.1 µM, first compound 0.0316 µM): 108%
viability, T/C (second compound 0.1 µM, first compound 0.1 µM): 110%
viability, T/C (second compound 0.1 µM, first compound 0.316 µM): 106%
viability, T/C (second compound 0.1 µM, first compound 1 µM): 102%
viability, T/C (second compound 0.1 µM, first compound 3.16 µM): 85.6%
viability, T/C (second compound 0.1 µM, first compound 10 µM): 85.8%
viability, T/C (second compound 0.316 µM, first compound 0.0316 µM): 104%
viability, T/C (second compound 0.316 µM, first compound 0.1 µM): 101%
viability, T/C (second compound 0.316 µM, first compound 0.316 µM): 115%
viability, T/C (second compound 0.316 µM, first compound 1 µM): 95.7%
viability, T/C (second compound 0.316 µM, first compound 3.16 µM): 87.5%
viability, T/C (second compound 0.316 µM, first compound 10 µM): 77.3%
viability, T/C (second compound 1 µM, first compound 0.0316 µM): 108%
viability, T/C (second compound 1 µM, first compound 0.1 µM): 110%
viability, T/C (second compound 1 µM, first compound 0.316 µM): 94.5%
viability, T/C (second compound 1 µM, first compound 1 µM): 95.1%
viability, T/C (second compound 1 µM, first compound 3.16 µM): 99%
viability, T/C (second compound 1 µM, first compound 10 µM): 69.1%
viability, T/C (second compound 3.16 µM, first compound 0.0316 µM): 83.7%
viability, T/C (second compound 3.16 µM, first compound 0.1 µM): 91.4%
viability, T/C (second compound 3.16 µM, first compound 0.316 µM): 82.6%
viability, T/C (second compound 3.16 µM, first compound 1 µM): 61.9%
viability, T/C (second compound 3.16 µM, first compound 3.16 µM): 70.4%
viability, T/C (second compound 3.16 µM, first compound 10 µM): 77.3%
viability, T/C (second compound 10 µM, first compound 0.0316 µM): 7.78%
viability, T/C (second compound 10 µM, first compound 0.1 µM): 6.78%
viability, T/C (second compound 10 µM, first compound 0.316 µM): 7.75%
viability, T/C (second compound 10 µM, first compound 1 µM): 8.55%
viability, T/C (second compound 10 µM, first compound 3.16 µM): 7.71%
viability, T/C (second compound 10 µM, first compound 10 µM): 10.2%
